For one data set the following is noted: pH 2.7, LogP, HPLC on reversed phase columns, pH 2.7, 0.1% formic acid in water / acetonitrile gradient.
Method: Measurement of log P values was performed according EEC directive 79/831 Annex V.A8 by HPLC (High Performance Liquid Chromatography) on reversed phase columns with the following method:
Measurement of LC-MS was done at pH 2.7 with 0.1% formic acid in water and with acetonitrile (contains 0.1% formic acid) as eluent with a linear gradient from 10% acetonitrile to 95% acetonitrile.
Calibration was done with not branched alkan2-ones (with 3 to 16 carbon atoms) with known log P-values (measurement of log P values using retention times with linear interpolation between successive alkanones). lambda-maX-values were determined using UV-spectra from 200 nm to 400 nm and the peak values of the chromatographic signals.
Broadly, the chromatographic logP is a lipophilicity value derived from retention on a column. A low value points to a more hydrophilic compound. `C=CCCCOC(=O)Nc1cccc(CON=C(c2ccccc2)c2nc(=O)on2C)n1` [Example 129] returned a chromatographic logP of 3.41. Still for that read-out and setting: as for `Cn1oc(=O)nc1C(=NOCc1cccc(NC(=O)OCCCC2CCCC2)n1)c1ccccc1` [Example 130], the figure is 4.68.

On to `Cc1cccc(C(=NOCc2cccc(NC(=O)CCc3ccccc3)n2)c2nc(=O)on2C)c1` [Example 79], for which the chromatographic logP came to 3.48. Still for that read-out and setting: with `Cn1oc(=O)nc1C(=NOCc1cccc(NC(=O)CCc2ccccc2)n1)c1ccccc1` [Example 119] the figure was 3.21; with `Cn1oc(=O)nc1C(=NOCc1cccc(NC(=O)c2csc3ccccc23)n1)c1ccccc1` [Example 142], 3.65.

As for `CCC(C)(C)C(=O)Nc1cccc(CON=C(c2ccccc2)c2nc(=O)on2C)n1` [Example 176], the chromatographic logP is 3.17.

`Cn1oc(=O)nc1C(=NOCc1cccc(NC(=O)OCc2ccccc2)n1)c1cccc(F)c1` [Example 163]: the chromatographic logP was 3.5.

The molecule `Cn1oc(=O)nc1C(=NOCc1cccc(NC(=O)OCC(C)(C)C)n1)c1ccccc1` [Example 121] returned a chromatographic logP of 3.7. On the same count and under the same terms, as for `Cn1oc(=O)nc1C(=NOCc1cccc(NC(=O)OCCC2CCCC2)n1)c1ccccc1` [Example 118], the figure is 4.26. Molecule `Cc1cccc(C(=O)Nc2cccc(CON=C(c3ccccc3)c3nc(=O)on3C)n2)c1` [Example 128] returned a chromatographic logP of 3.27.

Regarding `Cn1oc(=O)nc1C(=NOCc1cccc(NC(=O)C2CCCC2)n1)c1ccccc1` [Example 117], the chromatographic logP amounted to 2.98. Same read-out and setting: with `Cc1cccc(C(=NOCc2cccc(NC(=O)Cc3ccccc3)n2)c2nc(=O)on2C)c1` [Example 81] the figure was 3.23; with `C#CCCCC(=O)Nc1cccc(CON=C(c2ccccc2)c2nc(=O)on2C)n1` [Example 149], 2.6. The molecule `Cn1oc(=O)nc1C(=NOCc1cccc(NC(=O)OCCC2CCCCC2)n1)c1ccccc1` [Example 158] displayed a chromatographic logP of 4.63. For `CCCCCC(=O)Nc1cccc(CON=C(c2ccccc2)c2nc(=O)on2CCOC)n1` [Example 175], the chromatographic logP stood at 3.5. The same measure, in the same setting: as for `CC(C(=O)Nc1cccc(CON=C(c2ccccc2)c2nc(=O)on2C)n1)c1ccccc1` (stereo not shown) [Example 155], the figure is 3.29; as for `Cn1oc(=O)nc1C(=NOCc1cccc(NC(=O)OCCCC2CC2)n1)c1ccccc1` [Example 181], 3.76. The molecule `COCCn1oc(=O)nc1C(=NOCc1cccc(NC(=O)OC(C)(C)C)n1)c1ccccc1` [Example 42] came in with a chromatographic logP of 3.61.

`CC#CCC(C)OC(=O)Nc1cccc(CON=C(c2ccccc2)c2nc(=O)on2C)n1` (stereo not shown) [Example 151] came in with a chromatographic logP of 3.31. Still for that read-out and setting: as for `Cn1oc(=O)nc1C(=NOCc1cccc(NC(=O)c2ccccc2)n1)c1ccccc1` [Example 160], the figure is 2.92; as for `CC(C)CC(=O)Nc1cccc(CON=C(c2cccc(F)c2)c2nc(=O)on2C)n1` [Example 90], 2.92. Still for that read-out and setting: as for `Cn1oc(=O)nc1C(=NOCc1cccc(NC(=O)OCCCCCl)n1)c1ccccc1` [Example 143], the figure is 3.27; as for `C#CCCOC(=O)Nc1cccc(CON=C(c2cccc(F)c2F)c2nc(=O)on2C)n1` [Example 189], 2.78; as for `Cc1cccc(C(=NOCc2cccc(NC(=O)OCCC(C)C)n2)c2nc(=O)on2C)c1` [Example 91], 4.03.

Molecule `Cn1oc(=O)nc1C(=NOCc1cccc(NC(=O)OCCCCl)n1)c1ccccc1` [Example 133] came in with a chromatographic logP of 3.02. On to `Cn1oc(=O)nc1C(=NOCc1cccc(NC(=O)C2CCCCC2)n1)c1ccccc1` [Example 146], for which the chromatographic logP was 3.29. Same read-out and setting: as for `COc1cccc(C(=NOCc2cccc(NC(=O)c3ccccc3)n2)c2nc(=O)o[nH]2)c1` [Example 67], the figure is 2.96; as for `CC#CCOC(=O)Nc1cccc(CON=C(c2ccccc2)c2nc(=O)on2C)n1` [Example 134], 2.84; as for `COc1cccc(C(=NOCc2cccc(NC(=O)C(C)(C)C)n2)c2nc(=O)on2C)c1` [Example 93], 2.92.

`COc1cccc(C(=NOCc2cccc(NC(=O)Cc3ccccc3)n2)c2nc(=O)on2C)c1` [Example 166] registered a chromatographic logP of 3.02. The same measure, in the same setting: with `CCC#CCOC(=O)Nc1cccc(CON=C(c2ccccc2)c2nc(=O)on2C)n1` [Example 137] the figure was 3.21; with `COc1ccc(CC(=O)Nc2cccc(CON=C(c3cccc(F)c3F)c3nc(=O)on3C)n2)cc1` [Example 191], 2.98. The same measure, in the same setting: with `Cn1oc(=O)nc1C(=NOCc1cccc(NC(=O)CCC2CCCCC2)n1)c1ccccc1` [Example 147] the figure was 4.06; with `Cc1cccc(C(=O)Nc2cccc(CON=C(c3cccc(C)c3)c3nc(=O)on3C)n2)c1` [Example 86], 3.55.

In the case of `C=CCC(C)OC(=O)Nc1cccc(CON=C(c2ccccc2)c2nc(=O)on2C)n1` (stereo not shown) [Example 152], the chromatographic logP came to 3.39. Regarding `Cn1oc(=O)nc1C(=NOCc1cccc(NC(=O)OCC2CC2)n1)c1ccccc1` [Example 180], the chromatographic logP was found to be 3.04. For the molecule `Cn1oc(=O)nc1C(=NOCc1cccc(NC(=O)COc2ccccc2)n1)c1ccccc1` [Example 139], the chromatographic logP came out at 3.13. The chromatographic logP values of the last two molecules are within 0.2 log units of each other. On the same count and under the same terms, with `COc1cccc(C(=O)Nc2cccc(CON=C(c3ccccc3)c3nc(=O)on3C)n2)c1` [Example 132] the figure was 3.02; with `COc1cccc(C(=NOCc2cccc(N)n2)c2nc(=O)on2C)c1` [Example 24], 1.03. Turning to `COc1cccc(C(=O)Nc2cccc(CON=C(c3cccc(C)c3)c3nc(=O)on3C)n2)c1` [Example 88], the chromatographic logP turned out to be 3.31.

Molecule `C#CCOC(=O)Nc1cccc(CON=C(c2cccc(C)c2)c2nc(=O)on2C)n1` [Example 108] gave a chromatographic logP of 2.84. As to `Cc1ccc(C(=O)Nc2cccc(CON=C(c3ccccc3)c3nc(=O)on3C)n2)cc1` [Example 159], the chromatographic logP is 3.23. Molecule `Cn1oc(=O)nc1C(=NOCc1cccc(NC(=O)OCCCC2CCCCC2)n1)c1ccccc1` [Example 153] came in with a chromatographic logP of 5.06. The molecule `CCCCC(C)C(=O)Nc1cccc(CON=C(c2ccccc2)c2nc(=O)on2C)n1` (stereo not shown) [Example 144] had a chromatographic logP of 3.55. `C#CCCCCOC(=O)Nc1cccc(CON=C(c2ccccc2)c2nc(=O)on2C)n1` [Example 124] came in with a chromatographic logP of 3.21. Still for that read-out and setting: with `Cn1oc(=O)nc1C(=NOCc1cccc(NC(=O)OCCc2ccccc2)n1)c1cccc(F)c1F` [Example 190] the figure was 3.62.

Staying with this data set, now noted: pH 2.7, LogP, HPLC on reversed phase columns, pH 2.7, 0.1% formic acid in water / acetonitrile gradient; compounds of formula (V), Table 2.
Consider `CN(O)C(=N)C(=NOCc1cccc(N)n1)c1ccccc1` [Example V-03], for which the chromatographic logP stood at 0.22. Still for that read-out and setting: with `Cc1cccc(C(=NOCc2cccc(NC(=O)OC(C)(C)C)n2)C(=N)N(C)O)c1` [Example V-04] the figure was 1.93; with `CCN(O)C(=N)/C(=N\OCc1cccc(NC(=O)OC(C)(C)C)n1)c1ccccc1` [Example V-08, tert-butyl (6-{[({(1Z)-2-[hydroxy(ethyl)amino]-2-imino-1-(phenyl)ethylidene}amino)oxy]methyl}pyridin-2-yl)carbamate], 1.9.

Values taken from patent publication US9556158B2, “Fungicidal 3-[(pyridin-2-ylmethoxyimino)(phenyl)methyl]-2-substituted-1,2,4-oxadiazol-5(2H)-one derivatives” (BAYER INTELLECTUAL PROPERTY GMBH, priority 2011, dated 2017).
